From patent US20070128217A1 (priority 2003, published 2007)

Tests used:
[1] = test system: rabbit serum obtained by immunizing a rabbit with the SARS-CoV strain Frankfurt 1; assay type: binding; design: Binding of a rabbit serum to linear peptides / Binding of a rabbit serum to looped peptides / Rabbit serum linear peptides / Rabbit serum looped peptides / Binding of a rabbit serum to linear peptides of protein N of SARS-CoV Urbani (Rabbit serum linear peptides) / Binding of a rabbit serum to looped/cyclic peptides of protein N of SARS-CoV Urbani (Rabbit serum looped peptides): unit not given here
[2] = test system: recombinant human anti-SARS-CoV antibody 03-018; assay type: binding; design: Binding of antibody 03-018 to linear peptides of the N protein of SARS-CoV Urbani / Binding of antibody 03-018 to looped/cyclic peptides of the N protein of SARS-CoV Urbani: unit not given here
[3] = test system: control sera (pooled serum of ten healthy LUMC hospital workers; commercial negative donor pooled serum from the Dutch bloodbank); assay type: binding, human; design: Binding of Control serum LUMC to linear peptides / Binding of Control serum Blood-bank to linear peptides / Binding of Control serum LUMC to looped peptides / Binding of Control Serum Blood-Bank to Looped peptides / Binding of Control serum LUMC to linear peptides of the protein M of SARS-CoV Urbani / Binding of Control serum Blood-bank to linear peptides of the protein M of SARS-CoV Urbani / Binding of Control serum LUMC to looped peptides of the protein M of SARS-CoV Urbani / Binding of Control Serum Blood-Bank to Looped peptides of the protein M of SARS-CoV Urbani: unit not given here
[4] = test system: antibodies in sera from SARS patients (sera 1a, 1b, 2, 6, 37, 62, London, SARS-yellow, SARS-green); assay type: binding, human; design: Binding of serum 6 to linear peptides of protein X1 of SARS-CoV Urbani / Binding of serum 37 to linear peptides of protein X1 of SARS-CoV Urbani / Binding of serum 6 to looped/cyclic peptide (PEPSCAN-ELISA) / Binding of serum 37 to looped/cyclic peptide (PEPSCAN-ELISA) / Binding of serum 37 to looped/cyclic peptides of protein X1 of SARS-CoV Urbani / Binding of serum 6 to linear peptides of protein X2 / Binding of serum 37 to linear peptides of protein X2 / Binding of serum 37 to looped/cyclic peptides of protein X2 of SARS-CoV Urbani / Binding of serum 6 to linear peptides of protein M of SARS-CoV Urbani / Binding of serum 37 to linear peptides of protein M of SARS-CoV Urbani / Binding of serum 6 to looped/cyclic peptides of protein M of SARS-CoV Urbani / Binding of serum 37 to looped/cyclic peptides of protein M of SARS-CoV Urbani / Binding of serum 6 to linear peptides of protein X3 of SARS-CoV Urbani / Binding of serum 37 to linear peptides of protein X3 of SARS-CoV Urbani / Binding of serum 37 to looped/cyclic peptides of protein X3 of SARS-CoV Urbani / Binding of serum 6 to linear peptides of protein X4 of SARS-CoV Urbani / Binding of serum 37 to linear peptides of protein X4 of SARS-CoV Urbani / Binding of serum 37 to looped/cyclic peptides of protein X4 of SARS-CoV Urbani / Binding of serum 6 to linear peptides of protein X5 of SARS-CoV Urbani / Binding of serum 37 to linear peptides of protein X5 of SARS-CoV Urbani / Binding of serum 37 to looped/cyclic peptides of protein X5 of SARS-CoV Urbani / Binding of serum 6 to linear peptides of protein N of SARS-CoV Urbani / Binding of serum 37 to linear peptides of protein N of SARS-CoV Urbani / Binding of serum 6 to linear peptide (PEPSCAN-ELISA) / Binding of serum 1a to looped/cyclic peptides of protein N of SARS-CoV Urbani / Binding of serum 1b to looped/cyclic peptides of protein N of SARS-CoV Urbani / Binding of serum 2 to looped/cyclic peptides of protein N of SARS-CoV Urbani / Binding of serum 6 to looped/cyclic peptides of protein N of SARS-CoV Urbani / Binding of serum 37 to looped/cyclic peptides of protein N of SARS-CoV Urbani / Binding of serum 62 to looped/cyclic peptides of protein N of SARS-CoV Urbani / Binding of serum London to looped/cyclic peptides of protein N of SARS-CoV Urbani / Binding of serum SARS-green to looped/cyclic peptides of protein N of SARS-CoV Urbani: unit not given here

Sequence | Binding of a rabbit serum to linear peptides of protein N of SARS-CoV Urbani (Rabbit serum linear peptides) [1] | Binding of a rabbit serum to looped/cyclic peptides of protein N of SARS-CoV Urbani (Rabbit serum looped peptides) [1] | Binding of antibody 03-018 to linear peptides of the N protein of SARS-CoV Urbani [2] | Binding of antibody 03-018 to looped/cyclic peptides of the N protein of SARS-CoV Urbani [2] | Binding of Control Serum Blood-Bank to Looped peptides [3] | Binding of Control serum Blood-bank to linear peptides [3] | Binding of Control serum LUMC to linear peptides [3] | Binding of Control serum LUMC to looped peptides [3] | Binding of serum 1a to looped/cyclic peptides of protein N of SARS-CoV Urbani [4] | Binding of serum 1b to looped/cyclic peptides of protein N of SARS-CoV Urbani [4] | Binding of serum 2 to looped/cyclic peptides of protein N of SARS-CoV Urbani [4] | Binding of serum 6 to looped/cyclic peptides of protein N of SARS-CoV Urbani [4] | Binding of serum 37 to looped/cyclic peptides of protein N of SARS-CoV Urbani [4] | Binding of serum 62 to looped/cyclic peptides of protein N of SARS-CoV Urbani [4] | Binding of serum London to looped/cyclic peptides of protein N of SARS-CoV Urbani [4] | Binding of serum SARS-green to looped/cyclic peptides of protein N of SARS-CoV Urbani [4] | Binding of serum SARS-yellow to looped/cyclic peptides of protein N of SARS-CoV Urbani [4] | other results
FPRGQGVPINTNSGP | 0.2 | 0.2 | 0.1 | 0.2 | 0.6 | 0.8 | 0.7 | 0.5 | 0.3 | 0.2 | 0.4 | 0.2 | 0.5 | 0.4 | 0.4 | 0.4 | 0.4 | Binding of serum 1a to linear peptides of protein N of SARS-CoV Urbani [4]: 0.2; Binding of serum 1b to linear peptides of protein N of SARS-CoV Urbani [4]: 0.1; Binding of serum 2 to linear peptides of protein N of SARS-CoV Urbani [4]: 0.3; Binding of serum 6 to linear peptides of protein N of SARS-CoV Urbani [4]: 0.2; Binding of serum 37 to linear peptides of protein N of SARS-CoV Urbani [4]: 0.7; Binding of serum 62 to linear peptides of protein N of SARS-CoV Urbani [4]: 0.6; Binding of serum London to linear peptides of protein N of SARS-CoV Urbani [4]: 0.5; Binding of serum SARS-green to linear peptides of protein N of SARS-CoV Urbani [4]: 0.3; Binding of serum SARS-yellow to linear peptides of protein N of SARS-CoV Urbani [4]: 0.6
FYAEGSRGGSQASSR | 0.3 | 0.4 | 0.1 | 0.1 | 0.6 | 0.8 | 0.7 | 0.8 | 0.3 | 0.2 | 0.4 | 0.3 | 0.6 | 0.6 | 0.4 | 0.4 | 0.3 | Binding of serum 1a to linear peptide (PEPSCAN-ELISA) [4]: 0.3; Binding of serum 1b to linear peptide (PEPSCAN-ELISA) [4]: 0.2; Binding of serum 2 to linear peptide (PEPSCAN-ELISA) [4]: 0.2; Binding of serum 6 to linear peptide (PEPSCAN-ELISA) [4]: 0.3; Binding of serum 37 to linear peptide (PEPSCAN-ELISA) [4]: 0.7; Binding of serum 62 to linear peptide (PEPSCAN-ELISA) [4]: 0.8; Binding of serum London to linear peptide (PEPSCAN-ELISA) [4]: 0.5; Binding of serum SARS-green to linear peptide (PEPSCAN-ELISA) [4]: 0.4; Binding of serum SARS-yellow to linear peptide (PEPSCAN-ELISA) [4]: 0.6
